# Assay results taken from patent publication US20230293644A1, “ANTI-INFLAMMATORY PEPTIDES AND COMPOSITION COMPRISING THE SAME” (Gemvax & KAEL Co., Ltd., priority 2012, published 2023).
# Test system: TNF-α
# Assay: TNF-α ELISA, LPS-stimulated PBMC-derived monocytes (Example 1)
# Assay type: cell-based, human
# Conditions: LPS 10 ng/ml 2 hrs, starved 1 hr, 4 uM for 2 hrs; cell culture medium
# Method: PBMC (peripheral blood mononuclear cell) was separated from the blood samples (50ml) collected from healthy subjects using Ficoll-PaqueTM PLUS (GE Healthcare Life Sciences, Piscataway, NJ, USA). PBMCs were then enriched in complete RPMI 1640 medium containing 20% of human serum, followed by transferring to 100 mm polystyrene cell culture plate coated with human serum for 30 mins. […]
# To see the effect of PEP-1 on TNF-α level in terms of protein expression level, ELISA (enzyme linked immunosorbent assay) was performed. […] After culturing, cell soup was collected, and the amount of TNF-α was measured using ELISA kit (R&D, Minneapolis, MN, USA) as follows:
# TNF measurement uses sandwich ELISA method. […] Again, plate was washed, and avidin/biotin was added for measuring the absorbance. TNF-α level of each sample was quantified using the standard graph calculated from the absorbance of standard solution.
# PBMC-derived monocytes were stimulated with endotoxin LPS (10 ng/ml) for 2 hrs, starved for 1 hr using OPTI-MEM, and then 4 uM of FITC, FITC-TAT, PEP 1-FITC and FITC-PEP 1 were treated for 2 hrs. After incubation, TNF-α level was measured with cell culture medium using ELISA.
row,Substance,TNF-α level [ng/mL]
1,Fluorescein Isothiocyanate [FITC],6.2

# Test system: TNF-α
# Assay: Screening of TNF-α inhibitory effect, LPS-stimulated PBMC-derived monocytes (Example 2)
# Assay type: cell-based, human
# Conditions: 4 uM peptide, 2 hrs; LPS 10 ng/ml
# Method: PBMC (peripheral blood mononuclear cells) layer was separated from blood samples (50 ml) collected in healthy subjects using Biocoll Separating Solution (Biochrom AG, Berlin, Germany). The collected PBMC were enriched in RPMI 1640 medium containing 20% human serum for 30 mins, and then transferred to 100-mm polystyeren cell culture plate coated with human serum for incubation for 2 hrs at 37° C., 5% CO^2 incubator. Monocytes were detached from the bottom of the plate using cold PBS, and incubated to reach the number of 1 × 10^5 cell/well in 96-well plate with RPMI 1640 medium (supplemented with penicillinstreptomycin; […], human serum; 20%) over night.
# ELISA was performed to find out how the peptides of the PEP RIA series influence TNF-α level. PBMC-derived monocytes were incubated to reach the number of 1 × 10^5 cells per well in a 96-well plate and then treated with LPS (lipopolysaccharide; 10 ng/ml, Sigma) for 2 hours. To the monocytes that were washed three times with PBS, OPTI-MEM culture medium was added to induce cell starvation for an hour, 4 µM of the peptide was taken out and incubated for 2 hours. There were three negative control groups. The first group was not treated with anything. The second group that was treated with estrogen (in this experiment, estradiol was used as a kind of estrogen). The third group was treated with LPS (10 ng/ml) or with LPS (10 ng/ml) as well as estrogen (20 nM). PEP1 that was confirmed to have TNF-α inhibiting activity was used as a positive control to measure TNF-α inhibiting activity. After incubation, TNF-α was measured by following the ELISA kit manual (R&D, Minneapolis, MN, USA). The details of quantification method can be found in Experiment 2.2 of Example 1.
# Using the method stated above, Peptides with TNF-α inhibiting effect were screened. PBMC-derived monocytes were stimulated with LPS (10 ng/ml), which is endotoxin, for 2 hours and were induced to starve by adding OPTI-MEM for 1 hour. After that, 4 uM of 179 peptides were treated and incubated for 2 hrs. The amount of TNF-α in the cell culture medium was measured using ELISA, and the peptides with TNF-α inhibiting effect were screened by comparing to the negative and positive controls (FIG. 3 to FIG. 23).
row,Substance,TNF-α inhibiting effect compared to the control group treated with only LPS
1,LTSR (listed as Homo sapiens) [SEQ ID NO: 109],showed TNF-α inhibiting effect
2,VRQHREARPALLTSRLRFIPKPDGLR (listed as Homo sapiens) [SEQ ID NO: 36],showed TNF-α inhibiting effect
3,ARPALLTSRLR (listed as Homo sapiens) [SEQ ID NO: 112],showed TNF-α inhibiting effect
4,EARPALLTSRLRFIPKPDGLRPIVNM (listed as Homo sapiens) [SEQ ID NO: 73],showed TNF-α inhibiting effect
5,ARPALLTSRL (listed as Homo sapiens) [SEQ ID NO: 113],showed TNF-α inhibiting effect
6,QHREARPALLTSRLRFIPKPDGLR (listed as Homo sapiens) [SEQ ID NO: 38],showed TNF-α inhibiting effect
7,RFIP (listed as Homo sapiens) [SEQ ID NO: 177],showed TNF-α inhibiting effect
8,ARPAL (listed as Homo sapiens) [SEQ ID NO: 118],showed TNF-α inhibiting effect
9,REARPALLTSRLRFIPKPD (listed as Homo sapiens) [SEQ ID NO: 19],showed TNF-α inhibiting effect
10,LSEAEVRQHREARPALLTSRLRFIPK (listed as Homo sapiens) [SEQ ID NO: 11],showed TNF-α inhibiting effect
11,EVRQHREARPALLTSRLRFIPKPDG (listed as Homo sapiens) [SEQ ID NO: 43],showed TNF-α inhibiting effect
12,REARPALLTSRLRFIPKPDGLRPI (listed as Homo sapiens) [SEQ ID NO: 64],showed TNF-α inhibiting effect
13,VRQHREARPALLTSRLRFIPKPDGL (listed as Homo sapiens) [SEQ ID NO: 35],showed TNF-α inhibiting effect
14,ALLTSR (listed as Homo sapiens) [SEQ ID NO: 142],showed TNF-α inhibiting effect
15,LRFI (listed as Homo sapiens) [SEQ ID NO: 175],showed TNF-α inhibiting effect
16,EARPALLTSRLRFIPKPDGLRPIVN (listed as Homo sapiens) [SEQ ID NO: 72],showed TNF-α inhibiting effect
17,EARPALLTSRLRF (listed as Homo sapiens) [SEQ ID NO: 80],showed TNF-α inhibiting effect

# Same assay, conditions: 4 uM peptide, 2 hrs; LPS 10 ng/ml, estrogen 20 nM
row,Substance,TNF-α inhibiting effect compared to the group treated with LPS and estrogen
1,LTSR (listed as Homo sapiens) [SEQ ID NO: 109],showed TNF-α inhibiting effect
2,EARPALLTSRLRFIPKPDGLRPIVNM (listed as Homo sapiens) [SEQ ID NO: 73],showed TNF-α inhibiting effect
3,REARPALLTSRLRFIPKPD (listed as Homo sapiens) [SEQ ID NO: 19],showed TNF-α inhibiting effect
4,LSEAEVRQHREARPALLTSRLRFIPK (listed as Homo sapiens) [SEQ ID NO: 11],showed TNF-α inhibiting effect
5,EVRQHREARPALLTSRLRFIPKPDG (listed as Homo sapiens) [SEQ ID NO: 43],showed TNF-α inhibiting effect
6,REARPALLTSRLRFIPKPDGLRPI (listed as Homo sapiens) [SEQ ID NO: 64],showed TNF-α inhibiting effect
7,EARPALLTSRLRFIPKPDGLRPIVN (listed as Homo sapiens) [SEQ ID NO: 72],showed TNF-α inhibiting effect
8,EARPALLTSRLRF (listed as Homo sapiens) [SEQ ID NO: 80],showed TNF-α inhibiting effect

# Test system: TNF-α
# Assay: Screening of TNF-α level in PMA-differentiated THP-1 cell line after LPS
# Assay type: cell-based, human
# Conditions: 1 µM peptide, one hour; LPS 10 ng/ml
# Method: Experiment was carried out using THP-1 cell line (American Type Culture Collection (ATCC), Manassas, VA, USA) which is human acute monocytic leukemia.
# THP-1 cells were incubated to reach the number of 1 × 10^5 cells per well in a 96-well plate with RPMI 1640 medium for 24 hrs, followed by addition of 100 uM of PMA (phorbol 12-myristate 13-acetate) for the differentiation into macrophage. After differentiation of THP-1 into macrophage by PMA for a day, LPS was treated for 2 hrs and washed off. Starvation for an hour and PEP1 treatment followed.
# THP-1 cell differentiated by PMA was treated with LPS (lipopolysaccharide; 10 ng/ml, Sigma) for 2 hours, followed by 2 times washes with PBS. To the cells, OPTI-MEM culture medium was added to induce cell starvation for an hour, and 1 µM of 179 peptides was taken out and incubated for an hour. After incubation, TNF-α level was measured by using the ELISA kit and the peptides which reduce the TNF-α level were screened (FIG. 24 to FIG. 46).
Substance,TNF-α level compared to control group treated only with LPS,expression level of TNF-α compared to group treated with LPS and estrogen
LTSR (listed as Homo sapiens) [SEQ ID NO: 109],reduce the TNF- α level,
EVRQHREARPALLTSRLRFIPK (listed as Homo sapiens) [SEQ ID NO: 7],reduce the TNF- α level,
ALLTSRLR (listed as Homo sapiens) [SEQ ID NO: 107],reduce the TNF- α level,
EVRQHREARPALLTSRLRFIPKP (listed as Homo sapiens) [SEQ ID NO: 41],,reduce the expression level of TNF-α
VRQHREARPALLTSRLRFIPKPDGLR (listed as Homo sapiens) [SEQ ID NO: 36],reduce the TNF- α level,
ARPALLTSRLR (listed as Homo sapiens) [SEQ ID NO: 112],,reduce the expression level of TNF-α
HREARPALLTSRLRFIPK (listed as Homo sapiens) [SEQ ID NO: 3],,reduce the expression level of TNF-α
REARPALLTSRLRFIPK (listed as Homo sapiens) [SEQ ID NO: 2],,reduce the expression level of TNF-α
EARPALLTSRLRFIP (listed as Homo sapiens) [SEQ ID NO: 78],reduce the TNF- α level,
EARPALLTSRLRFIPKPDGLRPIVNM (listed as Homo sapiens) [SEQ ID NO: 73],reduce the TNF- α level,
ARPALLTSRL (listed as Homo sapiens) [SEQ ID NO: 113],,reduce the expression level of TNF-α
QHREARPALLTSRLRFIPKPDGLR (listed as Homo sapiens) [SEQ ID NO: 38],reduce the TNF- α level,
HREARPALLTSRLRFIPKPDGL (listed as Homo sapiens) [SEQ ID NO: 30],,reduce the expression level of TNF-α
RQHREARPALLTSRLRFIPK (listed as Homo sapiens) [SEQ ID NO: 5],reduce the TNF- α level,
FIP [SEQ ID NO: 179],reduce the TNF- α level,
EARPALLTSRLRFIPKPDGLRPIVNMDY (listed as Homo sapiens) [SEQ ID NO: 75],reduce the TNF- α level,
